From patent publication US12378256B2, “Heterocyclic compound” (Takeda Pharmaceutical Company Limited, priority 2017, dated 2025)

What was measured:
[1] = target: T1, human M1 receptor (hCHRM1) (Homo sapiens, UniProt P11229); assay: Measurement of M1 receptor positive allosteric modulator (M1PAM) activity, calcium fluorescence with acetylcholine at EC20; type: cell-based; settings: for activity (%) at 10 μM: 10 μM test compound, 100% = 1 μM acetylcholine, 0% = DMSO; for EC50: CHO-K1 cells expressing hCHRM1, acetylcholine at EC20 (final 0.8-1.0 nM), read-out: IP value (inflection point in the concentration-dependent curve)
T1 construct: expressed in transfected cells; host or cells: CHO-K1
T1 sequence (P11229 1-460): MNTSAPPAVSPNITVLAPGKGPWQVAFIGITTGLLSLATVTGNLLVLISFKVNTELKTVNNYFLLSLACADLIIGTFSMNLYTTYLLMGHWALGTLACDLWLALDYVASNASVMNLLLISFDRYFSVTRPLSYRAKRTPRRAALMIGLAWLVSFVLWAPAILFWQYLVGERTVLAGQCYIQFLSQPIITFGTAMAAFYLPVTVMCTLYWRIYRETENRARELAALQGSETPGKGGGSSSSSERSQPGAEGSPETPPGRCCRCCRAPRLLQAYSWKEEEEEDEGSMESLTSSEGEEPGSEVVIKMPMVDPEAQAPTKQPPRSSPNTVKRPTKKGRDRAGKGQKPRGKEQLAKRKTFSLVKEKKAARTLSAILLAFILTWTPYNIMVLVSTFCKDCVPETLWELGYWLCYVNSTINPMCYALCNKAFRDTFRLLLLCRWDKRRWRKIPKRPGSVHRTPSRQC
Method: Measurement of M1 Receptor Positive Allosteric Modulator (M1PAM) Activity
The activity of a test compound in the presence of acetylcholine at EC20 concentration (final concentration 0.8-1.0 nM), which affords an action corresponding to about 20% of the maximum activity, was measured as PAM activity. The method is as follows. CHO-K1 cells stably expressing a human M1 receptor (hCHRM1) were plated on a 384-well black clear bottom plate (BD Falcon) at 5,000 cells/well, and cultured in an incubator at 37° C., 5% CO2 for 1 day. The medium in the cell plate was removed, and assay buffer A containing calcium indicator (Recording medium (DOJINDO LABORATORIES), 0.1% BSA (Wako Pure Chemical Industries, Ltd.), 2.5 μg/mL Fluo-4 AM (DOJINDO LABORATORIES), 0.08% Pluronic F127 (DOJINDO LABORATORIES), 1.25 mM probenecid (DOJINDO LABORATORIES)) was added at 30 μL/well. The cells were left standing in the incubator at 37° C., 5% CO2 for 30 min, and further left standing at room temperature for 30 min. A test compound prepared by diluting with assay buffer B (HBSS (Invitrogen), 20 mM HEPES (Invitrogen), 0.1% BSA) containing 3.2-4.0 nM acetylcholine was added at 10 μL/well, and the fluorescence was measured by FDSS/μCELL (Hamamatsu Photonics K.K.) for 1 min every for 1 second. With the definition that the amount of change in the fluorescence on addition of acetylcholine (final concentration 1 μM) is 100% and that on addition of DMSO instead of a test compound is 0%, the activity (%) of the test compound was calculated, and the inflection point in the concentration-dependent curve of the test compound was calculated as IP values.

Male SD rats = assay: Rat defecation experiment; type: in vivo; settings: mean ± standard error
Method: Rat Defecation Experiment
Male SD rats (5-6 weeks old) were used after an acclimation period for about 1 week. A test drug (1 mg/kg or 3 mg/kg) was suspended in 0.5% methylcellulose solution and orally administered at a volume of 5 mL/kg, and the number of feces 2 hr later was counted. Only 0.5% methylcellulose was administered to a solvent administration group.

SMILES: Cn1cc(-c2ccc(C(F)c3cc(C(=O)N[C@H]4CCOC[C@@H]4O)nc4ccoc34)cc2)nn1 (single isomer, unassigned) [Example 55, 1,5-anhydro-2,3-dideoxy-3-(((7-(fluoro(4-(1-methyl-1H-1,2,3-triazol-4-yl)phenyl)methyl)furo[3,2-b]pyridin-5-yl)carbonyl)amino)-L-threo-pentitol]
- activity (%) at 10 μM [1]: 107%
- EC50 [1]: 0.63 nM

SMILES: Cn1cc(-c2ccc(Cc3cc(C(=O)N[C@H]4CCOC[C@@H]4O)nc4ccoc34)cc2)nn1 [Example 20, 1,5-anhydro-2,3-dideoxy-3-(((7-(4-(1-methyl-1H-1,2,3-triazol-4-yl)benzyl)furo[3,2-b]pyridin-5-yl)carbonyl)amino)-L-threo-pentitol]
- number of feces 2 hr later (Male SD rats; 1 mg/kg oral): 10.6 ± 1.3
- number of feces 2 hr later (Male SD rats; 3 mg/kg oral): 12.1 ± 1.1
- activity (%) at 10 μM [1]: 98%
- EC50 [1]: 0.88 nM

SMILES: O=C(N[C@H]1CCOC[C@@H]1O)c1cc(Cc2ccc(-n3cccn3)cc2)c2c(n1)CCO2 [Example 22, 1,5-anhydro-2,3-dideoxy-3-(((7-(4-(1H-pyrazol-1-yl)benzyl)-2,3-dihydrofuro[3,2-b]pyridin-5-yl)carbonyl)amino)-L-threo-pentitol]
- activity (%) at 10 μM [1]: 106%
- EC50 [1]: 1.7 nM

SMILES: Cn1cc(-c2ccc(Cc3cc(C(=O)N[C@H]4CCOC[C@@H]4O)nc4c3OCC4)cc2)nn1 [Example 31, 1,5-anhydro-2,3-dideoxy-3-(((7-(4-(1-methyl-1H-1,2,3-triazol-4-yl)benzyl)-2,3-dihydrofuro[3,2-b]pyridin-5-yl)carbonyl)amino)-L-threo-pentitol]
- number of feces 2 hr later (Male SD rats; 1 mg/kg oral): 10.0 ± 1.4
- activity (%) at 10 μM [1]: 101%
- EC50 [1]: 1.4 nM

SMILES: Cn1cc(-c2ccc(Cc3cc(C(=O)N[C@H]4CCOC[C@@H]4O)nc4ccoc34)cn2)cn1 [Example 36, 1,5-anhydro-2,3-dideoxy-3-(((7-((6-(1-methyl-1H-pyrazol-4-yl)pyridin-3-yl)methyl)furo[3,2-b]pyridin-5-yl)carbonyl)amino)-L-threo-pentitol]
- activity (%) at 10 μM [1]: 96%
- EC50 [1]: 1.5 nM

SMILES: Cn1cc(-c2ccc(Cc3cc(C(=O)N[C@H]4CCOC[C@@H]4O)nc4c3OCC4)cc2)cn1 [Example 44, 1,5-anhydro-2,3-dideoxy-3-(((7-(4-(1-methyl-1H-pyrazol-4-yl)benzyl)-2,3-dihydrofuro[3,2-b]pyridin-5-yl)carbonyl)amino)-L-threo-pentitol]
- activity (%) at 10 μM [1]: 105%
- EC50 [1]: 1.5 nM

SMILES: Cn1cnc(-c2ccc(Cc3cc(C(=O)N[C@H]4CCOC[C@@H]4O)nc4c3OCC4)cc2)c1 [Example 74, 1,5-anhydro-2,3-dideoxy-3-(((7-(4-(1-methyl-1H-imidazol-4-yl)benzyl)-2,3-dihydrofuro[3,2-b]pyridin-5-yl)carbonyl)amino)-L-threo-pentitol]
- activity (%) at 10 μM [1]: 108%
- EC50 [1]: 1.5 nM

SMILES: COCCNC(=O)c1ccc(Cc2cc(C(=O)N[C@H]3CCOC[C@@H]3O)nc3c2OCC3)cc1F [Example 76, 1,5-anhydro-2,3-dideoxy-3-(((7-(3-fluoro-4-((2-methoxyethyl)carbamoyl)benzyl)-2,3-dihydrofuro[3,2-b]pyridin-5-yl)carbonyl)amino)-L-threo-pentitol]
- number of feces 2 hr later (Male SD rats; 1 mg/kg oral): 8.3 ± 0.8
- number of feces 2 hr later (Male SD rats; 3 mg/kg oral): 10.3 ± 0.9
- activity (%) at 10 μM [1]: 109%
- EC50 [1]: 3.5 nM

SMILES: O=C(N[C@H]1CCOC[C@@H]1O)c1cc(Cc2ccc(C(=O)NC[C@@H]3CCCO3)c(F)c2)c2c(n1)CCO2 [Example 77, 1,5-anhydro-2,3-dideoxy-3-(((7-(3-fluoro-4-(((2S)-tetrahydrofuran-2-ylmethyl)carbamoyl)benzyl)-2,3-dihydrofuro[3,2-b]pyridin-5-yl)carbonyl)amino)-L-threo-pentitol]
- number of feces 2 hr later (Male SD rats; 1 mg/kg oral): 13.9 ± 1.5
- number of feces 2 hr later (Male SD rats; 3 mg/kg oral): 12.3 ± 1.6
- activity (%) at 10 μM [1]: 108%
- EC50 [1]: 3.2 nM

SMILES: O=C(N[C@H]1CCOC[C@@H]1O)c1cc(Cc2ccc(C(=O)NC[C@@H]3CCCO3)c(F)c2)c2occc2n1 [Example 102, 1,5-anhydro-2,3-dideoxy-3-(((7-(3-fluoro-4-(((2S)-tetrahydrofuran-2-ylmethyl)carbamoyl)benzyl)furo[3,2-b]pyridin-5-yl)carbonyl)amino)-L-threo-pentitol]
- number of feces 2 hr later (Male SD rats; 1 mg/kg oral): 8.9 ± 1.3
- number of feces 2 hr later (Male SD rats; 3 mg/kg oral): 12.4 ± 0.9
- activity (%) at 10 μM [1]: 107%
- EC50 [1]: 2.7 nM

SMILES: COCCNC(=O)c1ccc(Cc2cc(C(=O)N[C@H]3CCOC[C@@H]3O)nc3ccoc23)cc1F [Example 109, 1,5-anhydro-2,3-dideoxy-3-(((7-(3-fluoro-4-((2-methoxyethyl)carbamoyl)benzyl)furo[3,2-b]pyridin-5-yl)carbonyl)amino)-L-threo-pentitol]
- activity (%) at 10 μM [1]: 107%
- EC50 [1]: 2.4 nM
